≈ marks a conversion by molar mass, not a printed value.
Assays:
Assay type in all cases: functional
Streptococcus sp. [1] = assay: In vitro minimum inhibitory concentration against Streptococcus species; 0.5-2
Staphylococcus aureus [2] = assay: In vitro minimum inhibitory concentration against Staphylococcus aureus; 4-8
Enterococcus sp. [3] = assay: In vitro minimum inhibitory concentration against Enterococcus species; 8-16
Staphylococcus aureus [4] = assay: In vitro minimum inhibitory concentration against Staphylococcus aureus
Enterococcus sp. [5] = assay: In vitro minimum inhibitory concentration against Enterococcus species; 4-32
Staphylococcus aureus [6] = assay: In vitro minimum inhibitory concentration against Staphylococcus aureus; 2-8
Staphylococcus aureus [7] = assay: In vitro minimum inhibitory concentration against Staphylococcus aureus; 2-4
Streptococcus sp. [8] = assay: In vitro minimum inhibitory concentration against Streptococcus species; </=0.06-2
Enterococcus sp. [9] = assay: In vitro minimum inhibitory concentration against Enterococcus species; 4-16
Staphylococcus aureus [10] = assay: In vitro minimum inhibitory concentration against Staphylococcus aureus; 1-4
Streptococcus sp. [11] = assay: In vitro minimum inhibitory concentration against Streptococcus species; </=0.12-0.5
Enterococcus sp. [12] = assay: In vitro minimum inhibitory concentration against Enterococcus species; 2-16
Enterococcus sp. [13] = assay: In vitro minimum inhibitory concentration against Enterococcus species; 2-4
Streptococcus sp. [14] = assay: In vitro minimum inhibitory concentration against Streptococcus species
Staphylococcus aureus [15] = assay: In vitro minimum inhibitory concentration against Staphylococcus aureus; 1-2
Streptococcus sp. [16] = assay: In vitro minimum inhibitory concentration against Streptococcus species; 0.12-0.5

Structure (SMILES): C[C@@H](c1ccccc1)[C@@H]1NC(=O)CNC(=O)[C@H](CO)NC(=O)[C@@H]([C@@H](O)[C@@H]2CN=C(N)N2[C@H]2O[C@H](CO)[C@@H](O)[C@H](O)[C@@H]2O)NC(=O)[C@H]([C@@H](O)[C@@H]2CN=C(N)N2)NC(=O)[C@@H](Cc2ccc(O[C@H]3O[C@H](CO)[C@@H](O[C@H]4O[C@H](COC/C=C/c5ccccc5)[C@@H](O)[C@H](O)[C@@H]4O)[C@H](O)[C@@H]3O)cc2)NC1=O
- MIC (Streptococcus sp. [1]): 0.5 µg/mL (≈ 0.354 µM)
- MIC (Staphylococcus aureus [2]): 4 µg/mL (≈ 2.83 µM)
- MIC (Enterococcus sp. [3]): 8 µg/mL (≈ 5.67 µM)

Structure (SMILES): COc1ccc(COC[C@H]2O[C@H](O[C@H]3[C@H](O)[C@H](O)[C@@H](Oc4ccc(C[C@H]5NC(=O)[C@H]([C@@H](C)c6ccccc6)NC(=O)CNC(=O)[C@H](CO)NC(=O)[C@@H]([C@@H](O)[C@@H]6CN=C(N)N6[C@H]6O[C@H](CO)[C@@H](O)[C@H](O)[C@@H]6O)NC(=O)[C@H]([C@@H](O)[C@@H]6CN=C(N)N6)NC5=O)cc4)O[C@@H]3CO)[C@@H](O)[C@@H](O)[C@@H]2O)cc1
- MIC (Staphylococcus aureus [4]): 4 µg/mL (≈ 2.83 µM)
- MIC (Streptococcus sp. [1]): 0.5 µg/mL (≈ 0.353 µM)
- MIC (Enterococcus sp. [5]): 4 µg/mL (≈ 2.83 µM)

Structure (SMILES): COc1ccc(COC[C@H]2O[C@H](O[C@H]3[C@H](O)[C@H](O)[C@@H](Oc4ccc(C[C@H]5NC(=O)[C@H]([C@@H](C)c6ccccc6)NC(=O)CNC(=O)[C@H](CO)NC(=O)[C@@H]([C@@H](O)[C@@H]6CN=C(N)N6[C@H]6O[C@H](CO)[C@@H](O)[C@H](O)[C@@H]6O)NC(=O)[C@H]([C@@H](O)[C@@H]6CN=C(N)N6)NC5=O)cc4)O[C@@H]3CO)[C@@H](O)[C@@H](O)[C@@H]2O)cc1F
- MIC (Streptococcus sp. [1]): 0.5 µg/mL (≈ 0.349 µM)
- MIC (Staphylococcus aureus [6]): 2 µg/mL (≈ 1.4 µM)
- MIC (Enterococcus sp. [5]): 4 µg/mL (≈ 2.79 µM)

Structure (SMILES): COc1ccc(CO[C@H]2[C@H](O)[C@H](O)[C@@H](O[C@H]3[C@H](O)[C@H](O)[C@@H](Oc4ccc(C[C@H]5NC(=O)[C@H]([C@@H](C)c6ccccc6)NC(=O)CNC(=O)[C@H](CO)NC(=O)[C@@H]([C@@H](O)[C@@H]6CN=C(N)N6[C@H]6O[C@H](CO)[C@@H](O)[C@H](O)[C@@H]6O)NC(=O)[C@H]([C@@H](O)[C@@H]6CN=C(N)N6)NC5=O)cc4)O[C@@H]3CO)O[C@@H]2CO)cc1OCc1ccccc1
- MIC (Staphylococcus aureus [7]): 2 µg/mL (≈ 1.31 µM)
- MIC (Streptococcus sp. [8]): ≤ 0.06 µg/mL
- MIC (Enterococcus sp. [9]): 4 µg/mL (≈ 2.63 µM)

Structure (SMILES): COc1ccc(COC[C@H]2O[C@H](O[C@H]3[C@H](O)[C@H](O)[C@@H](Oc4ccc(C[C@H]5NC(=O)[C@H]([C@@H](C)c6ccccc6)NC(=O)CNC(=O)[C@H](CO)NC(=O)[C@@H]([C@@H](O)[C@@H]6CN=C(N)N6[C@H]6O[C@H](CO)[C@@H](O)[C@H](O)[C@@H]6O)NC(=O)[C@H]([C@@H](O)[C@@H]6CN=C(N)N6)NC5=O)cc4)O[C@@H]3CO)[C@@H](O)[C@@H](O)[C@@H]2O)c2ccccc12
- MIC (Staphylococcus aureus [10]): 1 µg/mL (≈ 0.682 µM)
- MIC (Streptococcus sp. [11]): ≤ 0.12 µg/mL
- MIC (Enterococcus sp. [12]): 2 µg/mL (≈ 1.36 µM)

Structure (SMILES): C[C@@H](c1ccccc1)[C@@H]1NC(=O)CNC(=O)[C@H](CO)NC(=O)[C@@H]([C@@H](O)[C@@H]2CN=C(N)N2[C@H]2O[C@H](CO)[C@@H](O)[C@H](O)[C@@H]2O)NC(=O)[C@H]([C@@H](O)[C@@H]2CN=C(N)N2)NC(=O)[C@@H](Cc2ccc(O[C@H]3O[C@H](CO)[C@@H](O[C@H]4O[C@H](COCC=C(c5ccccc5)c5ccccc5)[C@@H](O)[C@H](O)[C@@H]4O)[C@H](O)[C@@H]3O)cc2)NC1=O
- MIC (Enterococcus sp. [13]): 2 µg/mL (≈ 1.34 µM)
- MIC (Streptococcus sp. [14]): ≤ 0.06 µg/mL
- MIC (Staphylococcus aureus [4]): 2 µg/mL (≈ 1.34 µM)

Structure (SMILES): CCCOc1ccc(COC[C@H]2O[C@H](O[C@H]3[C@H](O)[C@H](O)[C@@H](Oc4ccc(C[C@H]5NC(=O)[C@H]([C@@H](C)c6ccccc6)NC(=O)CNC(=O)[C@H](CO)NC(=O)[C@@H]([C@@H](O)[C@@H]6CN=C(N)N6[C@H]6O[C@H](CO)[C@@H](O)[C@H](O)[C@@H]6O)NC(=O)[C@H]([C@@H](O)[C@@H]6CN=C(N)N6)NC5=O)cc4)O[C@@H]3CO)[C@@H](O)[C@@H](O)[C@@H]2O)cc1
- MIC (Enterococcus sp. [13]): 2 µg/mL (≈ 1.39 µM)
- MIC (Streptococcus sp. [14]): ≤ 0.06 µg/mL
- MIC (Staphylococcus aureus [15]): 1 µg/mL (≈ 0.693 µM)

Structure (SMILES): Cc1ccc(COC[C@H]2O[C@H](O[C@H]3[C@H](O)[C@H](O)[C@@H](Oc4ccc(C[C@H]5NC(=O)[C@H]([C@@H](C)c6ccccc6)NC(=O)CNC(=O)[C@H](CO)NC(=O)[C@@H]([C@@H](O)[C@@H]6CN=C(N)N6[C@H]6O[C@H](CO)[C@@H](O)[C@H](O)[C@@H]6O)NC(=O)[C@H]([C@@H](O)[C@@H]6CN=C(N)N6)NC5=O)cc4)O[C@@H]3CO)[C@@H](O)[C@@H](O)[C@@H]2O)cc1
- MIC (Enterococcus sp. [13]): 2 µg/mL (≈ 1.43 µM)
- MIC (Staphylococcus aureus [4]): 2 µg/mL (≈ 1.43 µM)
- MIC (Streptococcus sp. [16]): 0.12 µg/mL (≈ 0.0857 µM)
